This passage reports TGI results from PubChem BioAssay (NCI).

Holding throughout (assay): NCI tumour cell line growth inhibition, 48 h
The test system of assay [1] is SF-539 CNS.
Assay [2] deals with A549 NSCLC.
Assay [3] concerns MALME-3M melanoma.
Assay [4] deals with SW-620 colon.
In assay [5] the test system is SN12C renal.
Assay [6] relates to A498 renal.
Assay [7] has as its system SF-268 CNS.
For assay [8], the system named is HOP-92 NSCLC.
Assay [9] concerns OVCAR-8 ovarian.
Assay [10] has as its system CCRF-CEM leukemia.
Assay [11] deals with OVCAR-3 ovarian.
For assay [12], the system named is TK-10 renal.
For assay [13], the system named is U251 CNS.
Assay [14] concerns NCI-H23 lung.
For assay [15], the system named is UACC-62 melanoma.
Assay [16] relates to HL-60(TB) leukemia.
Assay [17] relates to MDA-MB-231 breast.
The subject of assay [18] is T-47D breast.
Assay [19] deals with NCI/ADR-RES ovarian.

Each structure is given as a SMILES string.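 Test compounds were applied to cells in 96-well plates for 48 hours at 5 doses. The concentration for full growth arrest is given as TGI.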

For the compound `O=CNc1ccccc1OCCOc1ccccc1NC=O`, the TGI in [1], in assay [2], in [3], in assay [4], in assay [5] and in [6] was above 100 µM each time. For the same compound, the TGI in assay [7], in [8], in assay [9], in assay [10], in assay [11] and in [12] was above 100 µM throughout. Further, the TGI in assay [13], in assay [14], in assay [15], in assay [16], in assay [17] and in [18] was above 100 µM throughout. Also, the TGI in [19] is above 100 µM.

Regarding `COc1cc2cc(C(=O)N3CC(CCl)c4ccc([N+](C)(C)Cc5ccccc5[N+](=O)[O-])cc43)[nH]c2c(OC)c1OC` (stereo not drawn), the TGI is 5.38 µM in [1]; above 100 µM in assay [2]; 3.59 µM in assay [3]; above 75.9 µM in assay [4]; 26.4 µM in [5]; 1.37 µM in [6]. Moreover, the TGI is 9.1 µM in [7]; above 29.8 µM in [8]; above 25.5 µM in assay [9]; above 23.8 µM in assay [10]; above 24.6 µM in [11]; above 100 µM in assay [12]. The TGI in assay [13] is 26.4 µM; in [14], 4.9 µM; in assay [15], 2.76 µM; in assay [16], above 100 µM; in assay [17], above 31.9 µM; in [18] it was 12.5 µM. In addition, the TGI in [19] stood at 34.2 µM.

Regarding `CC(=O)Nc1cccc(N2C(=O)/C(=C\c3cccc(Oc4ccccc4)c3)SC2c2ccccc2)c1` (stereo not drawn), the TGI in assay [1], in assay [2], in assay [3], in assay [4], in assay [5] and in assay [6] was above 100 µM throughout. Besides, the TGI in [7] is above 100 µM; in assay [8], above 100 µM; in [9], above 100 µM; in assay [10], 51.6 µM; in assay [11] it was above 100 µM; in assay [12], above 100 µM. For the same compound, the TGI in assay [13], in assay [14], in assay [15], in [16], in assay [17] and in [18] was above 100 µM each time. Further, in [19], the TGI is above 100 µM.

As for `O=[N+]([O-])/C(Cl)=C(/C(Cl)=C(Cl)Cl)N1CCOCC1`, the TGI in [1] was 9.05 µM; in assay [2] it was 15.6 µM; in assay [3] it was 3.07 µM; in [4] it was 11.7 µM; in assay [5] it was 20 µM; in assay [6], 7.79 µM. Also, the TGI in assay [7] was 24.4 µM; in assay [8], 4.88 µM; in assay [9], 11.9 µM; in assay [10], 7.23 µM; in assay [11], 4.86 µM; in [12], 13.6 µM. Moreover, the TGI in [13] was found to be 27 µM; in assay [14], 5.68 µM; in assay [15], 5.62 µM; in assay [16], 5.23 µM; in assay [17] it was 8.89 µM; in assay [18] it was 9.36 µM. In addition, the TGI in assay [19] was found to be 14.9 µM.

Consider `CC(=O)[C@H]1[C@H](O)C[C@@]2(C)[C@@H]3CCc4cc(O)c(OC5OC(CO)C(O)C(O)C5O)cc4C3(C)C(=O)C[C@]12C` (stereo partly drawn), for which the TGI in assay [1], in assay [2], in assay [3], in [4], in assay [5] and in [6] was above 100 µM throughout. In addition, the TGI in assay [7], in assay [8], in assay [9], in assay [10], in assay [11] and in assay [12] was above 100 µM in each case. In addition, the TGI in [13], in [14], in assay [15], in assay [16], in [17] and in [18] was above 100 µM throughout. The compound also registered a TGI in [19] above 100 µM.

For `CC(C)(C)OC(=O)CCCCCNC(=O)CCCCCNC(=O)CCC(CN(CC(=O)OCc1ccccc1)CC(=O)OCc1ccccc1)N(CC(=O)OCc1ccccc1)CC(=O)OCc1ccccc1` (stereo not drawn), the TGI in [1], in assay [2], in assay [3], in assay [4], in [5] and in assay [6] was above 100 µM in each case. In addition, the TGI in assay [7], in assay [8], in [9], in [10], in assay [11] and in assay [12] was above 100 µM in each case. For the same compound, the TGI in assay [13], in assay [14], in assay [15], in assay [16], in assay [17] and in assay [18] was above 100 µM each time. The compound also came in with a TGI in [19] above 100 µM.

On to `O=C(NCCNCCNC(=O)c1cc(-c2ccccc2)nc2ccccc12)c1cc(-c2ccccc2)nc2ccccc12`, for which the TGI in assay [1] worked out at 3.99 µM; in [2], 9.13 µM; in assay [3] it was 3.33 µM; in [4], 3.25 µM; in assay [5], 7.59 µM; in [6], 6.54 µM. The TGI was 9.55 µM in assay [7]; 6.17 µM in assay [8]; 4.54 µM in assay [9]; above 100 µM in [10]; 5.73 µM in assay [11]; 7.96 µM in assay [12]. Further, the TGI in [13] is 4.07 µM; in assay [14] it was 22.3 µM; in [15], 5.77 µM; in assay [16], 5 µM; in assay [17] it was 7.32 µM; in assay [18], 7.62 µM. The compound also returned a TGI in assay [19] of 4.18 µM.
